Source: patent publication US7074789B2, “Kinase inhibitors” (Amgen Inc., priority 1999, dated 2006)
pIC50: −log10 of the molar value.

Key:
Assay type in all cases: biochemical
[1] = target: T1, Lyn (Homo sapiens, UniProt P07948); assay: Kinase inhibition assay (33P transfer), Lyn; settings: Table 6, Lyn-1 kinase inhibition class
T1 construct: Kinases are expressed as either kinase domains or full length constructs; made in house
Text: (§1) The inhibitor compounds described herein are screened in the following manner. Kinases suitable for use in the following protocol to determine kinase activity of the compounds described herein include, -but are not limited to: Lck, Lyn, Src, Fyn, Syk, Zap-70, Itk, Tec, Btk, EGFR, ErbB2, Kdr, Flt-1, Flt-3, Tek, c-Met, InsR, and AKT.
(§2) Kinases are expressed as either kinase domains or full length constructs fused to glutathione S-transferase (GST) or polyHistidine tagged fusion proteins in either E. colior Baculovirus-High Five expression systems. They are purified to near homogeneity by affinity chromatography essentially as previously described (Lehr et al., 1996; Gish et al., 1995). In some instances, kinases are co-expressed or mixed with purified or partially purified regulatory polypeptides prior to measurement of activity.
(§3) Kinase activity and inhibition are measured essentially by established protocols (Braunwalder et al., 1996). Briefly, The transfer of ^33PO4 from ATP to the synthetic substrates poly(Glu, Tyr) 4:1 or poly(Arg, Ser) 3:1 attached to the bioactive surface of microtiter plates serves as the basis to evaluate enzyme activity. After an incubation period, the amount of phosphate transferred is measured by first washing the plate with 0.5% phosphoric acid, adding liquid scintillant, and then counting in a liquid scintillation detector. The IC50 is determined by the concentration of compound that causes a 50% reduction in the amount of […] incorporated onto the substrate bound to the plate.

[2] = target: T2, PDGFRB (Homo sapiens, UniProt P09619); assay: Kinase inhibition assay (33P transfer), PDGFRB; settings: read-out: PDGFRB-1
T2 construct: Kinases are expressed as either kinase domains or full length constructs; made in house

[3] = target: T3, AKT (Homo sapiens, UniProt Q9Y243); assay: Kinase inhibition assay (33P transfer), AKT; settings: Table 2, kinase inhibition class; read-out: AKT3-1
T3 construct: Kinases are expressed as either kinase domains or full length constructs; made in house
Method in brief: (§4)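 Steps: express kinase as GST or polyHistidine fusion in E. coli or High Five cells; optionally co-express or mix with regulatory polypeptides; incubate with 33P-ATP and plate-attached poly(Glu,Tyr) 4:1 or poly(Arg,Ser) 3:1; wash with 0.5% phosphoric acid; count by liquid scintillation.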

[4] = target: T4, Src (Homo sapiens, UniProt P12931); assay: Kinase inhibition assay (33P transfer), Src; settings: Table 6, Src-1 kinase inhibition class
T4 construct: Kinases are expressed as either kinase domains or full length constructs; made in house
T4 sequence (P12931 whole entry, species assumed, the tested form may be a part): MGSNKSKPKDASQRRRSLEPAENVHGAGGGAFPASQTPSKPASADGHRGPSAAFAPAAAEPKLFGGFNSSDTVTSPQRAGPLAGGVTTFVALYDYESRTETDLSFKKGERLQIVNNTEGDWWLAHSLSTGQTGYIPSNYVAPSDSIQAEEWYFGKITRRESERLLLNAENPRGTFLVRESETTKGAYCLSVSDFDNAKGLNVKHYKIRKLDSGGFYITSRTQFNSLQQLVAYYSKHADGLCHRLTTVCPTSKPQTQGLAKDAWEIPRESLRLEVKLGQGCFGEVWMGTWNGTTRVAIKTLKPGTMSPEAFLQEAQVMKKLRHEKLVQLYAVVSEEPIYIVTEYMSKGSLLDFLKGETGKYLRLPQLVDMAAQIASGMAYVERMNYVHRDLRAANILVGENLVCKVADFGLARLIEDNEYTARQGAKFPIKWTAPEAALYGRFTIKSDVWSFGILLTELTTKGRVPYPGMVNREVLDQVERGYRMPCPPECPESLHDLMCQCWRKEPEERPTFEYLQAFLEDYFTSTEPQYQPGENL
Text: as §1, §2, §3

[5] = target: T5, ErbB4 (Homo sapiens, UniProt Q15303); assay: Kinase inhibition assay (33P transfer), ErbB4; settings: read-out: ErbB4-1
T5 construct: Kinases are expressed as either kinase domains or full length constructs; made in house

[6] = target: T6, Fyn (Homo sapiens, UniProt P06241); assay: Kinase inhibition assay (33P transfer), Fyn; settings: read-out: Fyn-1
T6 construct: Kinases are expressed as either kinase domains or full length constructs; made in house
T6 sequence (P06241 whole entry, species assumed, the tested form may be a part): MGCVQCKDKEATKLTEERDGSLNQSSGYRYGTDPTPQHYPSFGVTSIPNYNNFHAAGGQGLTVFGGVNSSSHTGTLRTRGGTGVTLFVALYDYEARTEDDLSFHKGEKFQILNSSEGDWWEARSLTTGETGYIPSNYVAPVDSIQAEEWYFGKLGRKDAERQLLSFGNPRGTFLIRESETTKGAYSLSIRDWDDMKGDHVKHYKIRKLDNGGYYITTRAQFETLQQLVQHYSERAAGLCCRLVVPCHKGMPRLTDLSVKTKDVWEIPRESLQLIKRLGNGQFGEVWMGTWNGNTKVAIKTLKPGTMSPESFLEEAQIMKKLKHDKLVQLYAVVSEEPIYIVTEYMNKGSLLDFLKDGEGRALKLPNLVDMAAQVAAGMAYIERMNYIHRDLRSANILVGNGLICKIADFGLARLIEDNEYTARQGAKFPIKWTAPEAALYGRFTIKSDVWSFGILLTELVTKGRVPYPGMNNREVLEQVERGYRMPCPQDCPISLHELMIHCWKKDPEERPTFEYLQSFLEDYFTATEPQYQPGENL
Text: as §1, §2, §3

[7] = target: T7, EGFR (Homo sapiens, UniProt P00533); assay: Kinase inhibition assay (33P transfer), EGFR; settings: Table 2, kinase inhibition class; read-out: EGFR-1
T7 construct: Kinases are expressed as either kinase domains or full length constructs; made in house
T7 sequence (P00533 25-1210, species assumed): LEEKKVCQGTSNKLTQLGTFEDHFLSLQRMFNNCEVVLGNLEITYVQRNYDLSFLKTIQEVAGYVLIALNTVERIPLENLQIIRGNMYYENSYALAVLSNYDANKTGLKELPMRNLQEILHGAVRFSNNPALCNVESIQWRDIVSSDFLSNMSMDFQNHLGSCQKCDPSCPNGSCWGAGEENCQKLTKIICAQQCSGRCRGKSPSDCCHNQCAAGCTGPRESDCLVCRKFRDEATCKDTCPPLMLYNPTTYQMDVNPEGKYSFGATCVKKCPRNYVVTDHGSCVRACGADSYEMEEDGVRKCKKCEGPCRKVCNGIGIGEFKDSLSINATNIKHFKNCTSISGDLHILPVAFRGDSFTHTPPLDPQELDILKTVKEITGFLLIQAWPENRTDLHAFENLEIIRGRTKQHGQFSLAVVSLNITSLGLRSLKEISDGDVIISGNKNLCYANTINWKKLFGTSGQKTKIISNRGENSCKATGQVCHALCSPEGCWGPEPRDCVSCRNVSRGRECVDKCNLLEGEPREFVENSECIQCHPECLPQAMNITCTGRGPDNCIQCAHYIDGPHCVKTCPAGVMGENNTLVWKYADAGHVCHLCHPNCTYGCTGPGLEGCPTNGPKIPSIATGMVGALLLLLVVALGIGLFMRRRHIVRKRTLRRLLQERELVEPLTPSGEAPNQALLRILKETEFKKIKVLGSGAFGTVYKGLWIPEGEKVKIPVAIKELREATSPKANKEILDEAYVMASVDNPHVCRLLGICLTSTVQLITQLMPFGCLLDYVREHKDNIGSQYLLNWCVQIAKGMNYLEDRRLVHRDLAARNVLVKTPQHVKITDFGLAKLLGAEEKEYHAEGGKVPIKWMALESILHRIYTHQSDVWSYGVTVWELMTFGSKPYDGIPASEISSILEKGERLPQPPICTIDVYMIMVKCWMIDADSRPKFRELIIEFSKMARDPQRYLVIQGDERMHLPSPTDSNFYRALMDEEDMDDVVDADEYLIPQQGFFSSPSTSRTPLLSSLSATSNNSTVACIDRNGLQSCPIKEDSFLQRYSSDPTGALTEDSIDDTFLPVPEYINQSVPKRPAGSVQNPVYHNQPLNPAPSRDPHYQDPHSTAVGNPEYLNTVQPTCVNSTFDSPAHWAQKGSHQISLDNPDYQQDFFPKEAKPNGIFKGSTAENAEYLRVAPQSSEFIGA
Method in brief: (§5)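 Using immobilised substrate copolymers (poly(Glu,Tyr) 4:1; poly(Arg,Ser) 3:1) and [33P]ATP, purified fusion kinases were allowed to react; plates were then rinsed in 0.5% phosphoric acid and counted in a scintillation detector. Half-maximal inhibition of label transfer defines IC50.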

[8] = target: T8, Itk (Homo sapiens, UniProt Q08881); assay: Kinase inhibition assay (33P transfer), Itk; settings: Table 3; read-out: Itk-1
T8 construct: Kinases are expressed as either kinase domains or full length constructs; made in house
T8 sequence (Q08881 1-620): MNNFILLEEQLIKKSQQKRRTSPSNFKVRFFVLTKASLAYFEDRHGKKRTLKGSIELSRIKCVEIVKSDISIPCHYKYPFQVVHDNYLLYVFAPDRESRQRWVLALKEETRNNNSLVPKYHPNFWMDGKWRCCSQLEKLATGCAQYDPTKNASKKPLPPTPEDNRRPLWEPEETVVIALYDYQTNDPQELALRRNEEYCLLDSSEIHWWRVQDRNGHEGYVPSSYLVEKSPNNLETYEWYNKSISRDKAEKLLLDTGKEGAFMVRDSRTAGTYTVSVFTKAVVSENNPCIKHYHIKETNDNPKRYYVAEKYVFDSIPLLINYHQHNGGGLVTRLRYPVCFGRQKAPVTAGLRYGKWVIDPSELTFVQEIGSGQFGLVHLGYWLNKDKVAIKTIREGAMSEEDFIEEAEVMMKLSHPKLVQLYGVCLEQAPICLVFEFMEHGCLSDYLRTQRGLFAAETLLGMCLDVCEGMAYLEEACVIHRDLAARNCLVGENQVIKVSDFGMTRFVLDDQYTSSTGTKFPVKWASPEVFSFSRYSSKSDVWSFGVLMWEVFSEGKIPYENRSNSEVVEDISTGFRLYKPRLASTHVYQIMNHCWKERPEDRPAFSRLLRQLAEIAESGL
Method in brief: as §5

[9] = target: T9, Lck (Homo sapiens, UniProt P06239); assay: Kinase inhibition assay (33P transfer), Lck; settings: Table 3; read-out: Lck-1
T9 construct: Kinases are expressed as either kinase domains or full length constructs; made in house
T9 sequence (P06239 whole entry, species assumed, the tested form may be a part): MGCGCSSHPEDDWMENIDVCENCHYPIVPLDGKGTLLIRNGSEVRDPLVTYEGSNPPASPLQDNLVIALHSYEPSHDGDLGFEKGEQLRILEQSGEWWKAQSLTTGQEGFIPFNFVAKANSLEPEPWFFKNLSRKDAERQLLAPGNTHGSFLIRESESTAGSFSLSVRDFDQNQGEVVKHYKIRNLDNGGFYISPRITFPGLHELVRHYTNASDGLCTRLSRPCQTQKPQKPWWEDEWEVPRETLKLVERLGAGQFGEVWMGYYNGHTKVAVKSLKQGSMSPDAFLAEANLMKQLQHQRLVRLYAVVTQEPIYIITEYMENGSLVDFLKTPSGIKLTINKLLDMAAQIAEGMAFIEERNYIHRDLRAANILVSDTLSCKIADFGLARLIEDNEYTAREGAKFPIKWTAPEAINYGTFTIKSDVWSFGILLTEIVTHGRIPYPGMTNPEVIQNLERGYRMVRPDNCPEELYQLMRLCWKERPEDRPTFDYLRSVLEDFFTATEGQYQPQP
Method in brief: as §4

[10] = target: T10, Hck-1 (Homo sapiens, UniProt P08631); assay: Kinase inhibition assay (33P transfer), Hck; settings: Table 6, Hck-1 kinase inhibition class
T10 construct: Kinases are expressed as either kinase domains or full length constructs; made in house

[11] = target: T11, Flt-1 (Homo sapiens, UniProt P17948); assay: Kinase inhibition assay (33P transfer), Flt-1
T11 construct: Kinases are expressed as either kinase domains or full length constructs; made in house
Text: as §1, §2, §3

[12] = target: T12, Zap-70 (Homo sapiens, UniProt P43403); assay: Kinase inhibition assay (33P transfer), Zap-70; settings: Table 3; read-out: Zap-1
T12 construct: Kinases are expressed as either kinase domains or full length constructs; made in house
T12 sequence (P43403 1-619): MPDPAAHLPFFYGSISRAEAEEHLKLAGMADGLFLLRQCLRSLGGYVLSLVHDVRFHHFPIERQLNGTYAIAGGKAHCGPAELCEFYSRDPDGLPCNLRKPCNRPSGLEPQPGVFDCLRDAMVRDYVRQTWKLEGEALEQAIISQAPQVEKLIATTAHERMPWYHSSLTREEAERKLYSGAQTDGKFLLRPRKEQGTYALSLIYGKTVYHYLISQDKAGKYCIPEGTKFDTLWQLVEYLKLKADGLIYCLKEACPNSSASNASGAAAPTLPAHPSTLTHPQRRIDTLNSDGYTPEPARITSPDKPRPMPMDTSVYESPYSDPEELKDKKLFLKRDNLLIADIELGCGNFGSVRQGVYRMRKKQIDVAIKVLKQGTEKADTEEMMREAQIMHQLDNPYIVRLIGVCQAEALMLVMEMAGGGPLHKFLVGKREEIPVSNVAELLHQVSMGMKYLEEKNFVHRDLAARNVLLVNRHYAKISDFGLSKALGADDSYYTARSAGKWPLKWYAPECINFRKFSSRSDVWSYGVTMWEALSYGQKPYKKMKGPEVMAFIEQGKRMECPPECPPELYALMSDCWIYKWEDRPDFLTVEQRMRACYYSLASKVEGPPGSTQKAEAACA
Method in brief: as §4

[13] = target: T13, Kdr (Homo sapiens, UniProt P35968); assay: Kinase inhibition assay (33P transfer), Kdr; settings: Table 3; read-out: KDR-1
T13 construct: Kinases are expressed as either kinase domains or full length constructs; made in house
Method in brief: as §4

[14] = target: T14, c-Met (Homo sapiens, UniProt P08581); assay: Kinase inhibition assay (33P transfer), c-Met; settings: Table 2, kinase inhibition class; read-out: Met-1
T14 construct: Kinases are expressed as either kinase domains or full length constructs; made in house
T14 sequence (P08581 25-1390): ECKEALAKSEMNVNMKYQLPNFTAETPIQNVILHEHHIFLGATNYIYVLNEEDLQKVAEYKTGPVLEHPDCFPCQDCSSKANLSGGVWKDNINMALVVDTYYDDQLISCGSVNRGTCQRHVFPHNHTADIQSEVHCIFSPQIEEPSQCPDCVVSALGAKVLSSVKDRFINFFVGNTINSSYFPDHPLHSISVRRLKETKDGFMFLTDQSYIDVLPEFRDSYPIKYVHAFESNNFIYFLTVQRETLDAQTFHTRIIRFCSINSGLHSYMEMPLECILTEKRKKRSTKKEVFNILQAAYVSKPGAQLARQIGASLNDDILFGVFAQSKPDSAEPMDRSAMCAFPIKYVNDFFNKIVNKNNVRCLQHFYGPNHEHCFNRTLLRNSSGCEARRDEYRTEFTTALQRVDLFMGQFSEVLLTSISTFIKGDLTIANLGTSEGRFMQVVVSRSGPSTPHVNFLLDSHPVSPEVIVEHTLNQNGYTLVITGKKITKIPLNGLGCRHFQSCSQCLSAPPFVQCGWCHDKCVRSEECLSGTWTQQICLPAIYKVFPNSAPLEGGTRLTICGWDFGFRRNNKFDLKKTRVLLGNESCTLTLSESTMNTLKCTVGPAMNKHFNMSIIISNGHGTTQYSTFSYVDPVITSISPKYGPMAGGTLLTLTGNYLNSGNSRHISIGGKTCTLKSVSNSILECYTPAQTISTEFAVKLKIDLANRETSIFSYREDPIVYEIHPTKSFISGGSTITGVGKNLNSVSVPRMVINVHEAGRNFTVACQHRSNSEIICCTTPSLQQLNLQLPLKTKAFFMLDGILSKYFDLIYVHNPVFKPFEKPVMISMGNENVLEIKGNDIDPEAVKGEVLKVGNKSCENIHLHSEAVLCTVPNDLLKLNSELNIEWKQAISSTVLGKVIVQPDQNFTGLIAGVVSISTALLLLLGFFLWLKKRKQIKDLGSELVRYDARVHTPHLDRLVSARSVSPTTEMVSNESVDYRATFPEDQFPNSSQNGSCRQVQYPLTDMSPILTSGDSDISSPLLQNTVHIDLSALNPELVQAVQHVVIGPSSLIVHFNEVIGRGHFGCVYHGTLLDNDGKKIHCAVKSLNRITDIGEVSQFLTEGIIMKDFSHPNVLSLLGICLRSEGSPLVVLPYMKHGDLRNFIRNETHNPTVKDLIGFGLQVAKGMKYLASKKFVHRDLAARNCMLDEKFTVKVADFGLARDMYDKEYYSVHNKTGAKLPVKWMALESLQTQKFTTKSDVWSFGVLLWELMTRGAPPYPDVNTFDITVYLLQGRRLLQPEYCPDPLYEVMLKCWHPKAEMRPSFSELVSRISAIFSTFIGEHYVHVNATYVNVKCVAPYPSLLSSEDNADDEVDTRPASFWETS
Method in brief: as §5

[15] = target: T15, FGFR1 (Homo sapiens, UniProt P11362); assay: Kinase inhibition assay (33P transfer), FGFR1; settings: read-out: FGFR1-1
T15 construct: Kinases are expressed as either kinase domains or full length constructs; made in house

[16] = target: T16, Tek (Homo sapiens, UniProt Q02763); assay: Kinase inhibition assay (33P transfer), Tek; settings: read-out: Tek-1
T16 construct: Kinases are expressed as either kinase domains or full length constructs; made in house
Method in brief: as §5

T1 sequence (P07948 whole entry, species assumed, the tested form may be a part): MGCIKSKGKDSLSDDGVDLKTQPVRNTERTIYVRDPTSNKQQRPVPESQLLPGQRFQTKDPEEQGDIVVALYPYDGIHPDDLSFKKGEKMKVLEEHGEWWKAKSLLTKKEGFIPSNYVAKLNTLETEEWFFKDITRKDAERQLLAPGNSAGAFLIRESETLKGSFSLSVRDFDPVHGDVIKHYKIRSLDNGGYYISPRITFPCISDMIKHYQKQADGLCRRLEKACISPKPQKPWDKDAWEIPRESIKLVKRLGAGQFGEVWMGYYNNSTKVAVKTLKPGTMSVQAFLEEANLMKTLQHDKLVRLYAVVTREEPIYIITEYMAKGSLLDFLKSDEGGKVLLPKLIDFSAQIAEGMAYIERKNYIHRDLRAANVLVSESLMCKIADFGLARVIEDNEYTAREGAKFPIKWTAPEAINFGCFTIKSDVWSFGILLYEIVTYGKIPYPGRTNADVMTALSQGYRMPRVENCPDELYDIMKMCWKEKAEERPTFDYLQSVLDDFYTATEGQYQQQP

Row | pIC50 [1] | pIC50 [2] | pIC50 [3] | pIC50 [4] | pIC50 [5] | pIC50 [6] | pIC50 [7] | pIC50 [8] | pIC50 [9] | pIC50 [10] | pIC50 [11] | pIC50 [12] | pIC50 [13] | pIC50 [14] | pIC50 [15] | pIC50 [16] | SMILES
1 | > 5.99 | > 5.99 | 4.94 to 5.05 | > 5.99 | 5.21 to 5.99 | > 5.99 | < 4.94 | > 5.99 | > 5.99 | < 4.94 | > 5.99 | < 4.94 | > 5.99 | 5.21 to 5.99 | > 5.99 | 5.05 to 5.21 | COc1cc(Nc2ncnc(-n3ccc4cc(O)ccc43)n2)cc(OC)c1OC [Compound 202]
2 | > 5.94 | > 5.94 | 5.16 to 5.94 | > 5.94 | 5.16 to 5.94 | 5.16 to 5.94 | 5.16 to 5.94 | 5.16 to 5.94 | 5.16 to 5.94 | < 4.89 | > 5.94 | < 4.89 | > 5.94 | > 5.94 | > 5.94 | 4.89 to 5.00 | OCc1cccc(Nc2ncnc(Nc3cc(-c4ccco4)n[nH]3)n2)c1 [Compound 429]
3 | > 6.09 | > 6.09 | < 5.04 | 5.31 to 6.09 | < 5.04 | 5.31 to 6.09 | < 5.04 | 5.15 to 5.31 | > 6.09 | < 5.04 | > 6.09 | < 5.04 | > 6.09 | 5.31 to 6.09 | > 6.09 | 5.04 to 5.15 | COc1cc(Nc2ncnc(-n3c(N)nc4ccccc43)n2)cc(OCCN2CCOCC2)c1OC [Compound 466]
4 | > 5.99 | 5.05 to 5.22 | < 4.94 | < 4.94 | < 4.94 | < 4.94 | < 4.94 | < 4.94 | > 5.99 | < 4.94 | < 4.94 | < 4.94 | 5.22 to 5.99 | < 4.94 | < 4.94 | < 4.94 | C=CCNc1cc(-c2ncnc(Nc3cc(OC)c(OC)c(OC)c3)n2)ccn1 [Compound 412]
5 | 5.31 to 6.08 | > 6.08 | < 5.03 | 5.31 to 6.08 | < 5.03 | 5.31 to 6.08 | < 5.03 | < 5.03 | < 5.03 | < 5.03 | 5.31 to 6.08 | < 5.03 | > 6.08 | < 5.03 | > 6.08 | < 5.03 | COc1cc(Nc2ncnc(-n3c(NCc4ccncc4)nc4ccccc43)n2)cc(OC)c1OC [Compound 413]
